Experimental data: US10705093B2, “Determination of small-molecule thiols and disulfides: protein bound cys and total cysteine as biomarkers of oxidative stress” (Bloodworks, priority 2014, dated 2020)

Key:
[1] = system: Protein-ss-Cys in plasma from a normal donor; assay: Protein-ss-Cys in plasma treated with two physiologically relevant oxidants; design: species or system human; settings: 37° C. for 30 min, with increasing oxidant concentration
Experimental: A. Cys containing species in normal donors' plasma (n=6); B. Plasma from a nomal donor treated with hydrogen peroxide (H2O2) and hypochlorous acid (HOCl), two oxidants commonly released from activated cells and neutrophils of patients with oxidative stress. Plasma was reaction with the indicated concentration at 37° C. for 30 min and followed by methanol extraction and analysis by LC-MS/MS-MRM as described in Example 1.

Cys disulfides in plasma = assay: Cys and Cys disulfide changes in plasma from a patient with SCD before and after NAC infusion (LC-MS/MS-MRM)
[2] = system: NAC, Cys species and GSH in plasma/whole blood/RBC; assay: Time course of NAC, Cys containing species and GSH in plasma/whole blood from a patient with SCD before and after NAC treatment
[3] = after NAC infusion for 1 hr at 150 mg/kg vs baseline

| Compound | Change of Protein-ss-Cys in plasma exposed to oxidant [1] | NAC-ss-Cys mixed disulfide in plasma (Cys disulfides in plasma; after NAC infusion for 1 hr at 150 mg/kg) | Change of Cystine in plasma (Cys disulfides in plasma; [3]) | Change of Protein-ss-Cys in plasma (Cys disulfides in plasma; [3]) | Change of total Cys in plasma (Cys disulfides in plasma; [3]) | Free Cys in plasma after NAC infusion (Cys disulfides in plasma; after NAC infusion for 1 hr at 150 mg/kg, baseline 7 μM) | NAC level in plasma ([2]; 24 hr time point) | Increase of GSH level ([2]; 24 hr time point compared to before treatment) | Increase of free Cys in the red blood cell (RBC) fraction ([2]; RBC fraction, after NAC infusion vs before) | Free Cys in the red blood cell (RBC) fraction after NAC ([2]; RBC fraction, after NAC infusion, before 2.3 μM) | Change of free Cys in plasma ([2]; after NAC infusion vs Pre) | Change of p-ss-Cys ([2]; after NAC infusion vs Pre) | Change of total small molecular weight thiol (st-Cys) ([2]; after NAC infusion vs Pre) | NAC half time ([2]; inferred from the 24 hr level) | Fraction of NAC oxidized ([2]; plasma, at 1 hr (right after NAC infusion)) | Free Cys in whole blood after NAC ([2]; whole blood, after NAC infusion, before 13 μM) |
| --- | --- | --- | --- | --- | --- | --- | --- | --- | --- | --- | --- | --- | --- | --- | --- | --- |
| OO [H2O2, hydrogen peroxide] | increased |  |  |  |  |  |  |  |  |  |  |  |  |  |  |  |
| OCl [HOCl, hypochlorous acid] | increased |  |  |  |  |  |  |  |  |  |  |  |  |  |  |  |
| CC(=O)N[C@@H](CS)C(=O)O [NAC, N-Acetyl Cysteine] |  | Detection of NAC-ss-Cys | large decrease | large decrease | no significant changes | over 170 μM | almost not detectable | 13% | over 10 fold | 31 µM | greatly increased | decreased sharply | greatly increased | short | over 50% | 170 µM |
